Columns and labels:
Assay in all cases: relative viability (nuclei count vs DMSO), 5 days (fraction); higher = more cells survive
[1] = tested on: PC-3 [JPC-3]
In short: (§1)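 Lung cancer cell lines in 1536-well plates got either a single drug or a fixed anchor-drug dose together with five library-drug doses (not always all listed) in √10 steps, by pin tool, on the day after seeding. Nuclei were counted after 5 days, and relative viability is the treated-to-vehicle ratio of nuclei counts. Values are medians of duplicate plates.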

[2] = tested on: BEN
In short: as §1

[3] = tested on: COR-L 105
In short: as §1

[4] = tested on: NCI-H2170
In short: as §1

[5] = tested on: SW 1573
In short: as §1

[6] = tested on: LU99A
In short: as §1

[7] = tested on: H3255
In short: as §1

[8] = tested on: NCI-H1975
In short: as §1

[9] = tested on: NCI-H1437
In short: as §1

[10] = tested on: NCI-H2087
In short: as §1

[11] = tested on: EKVX
In short: as §1

[12] = tested on: NCI-H2085
In short: as §1

[13] = tested on: EPLC-272H
In short: as §1

[14] = tested on: NCI-H2342
In short: as §1

[15] = tested on: 201T
In short: as §1

[16] = tested on: NCI-H1666
In short: as §1

[17] = tested on: LCLC-97TM1
In short: as §1

[18] = tested on: HCC-827
In short: as §1

[19] = tested on: NCI-H650
In short: as §1

[20] = tested on: NCI-H647
In short: as §1

[21] = tested on: HCC-44
In short: as §1

[22] = tested on: LOU-NH91
In short: as §1

## COc1cc2nccc(Oc3ccc(NC(=O)Nc4cc(C)on4)c(Cl)c3)c2cc1OC [Tivozanib] + CCNC(=O)c1noc(-c2cc(C(C)C)c(O)cc2O)c1-c1ccc(CN2CCOCC2)cc1 [Luminespib] (partner 0.01 µM)
[1]; first compound 0.005 µM
  relative viability: 0.744
[1]; first compound 0.01581 µM
  relative viability: 0.636
[1]; first compound 0.05 µM
  relative viability: 0.751
[1]; first compound 0.1581 µM
  relative viability: 0.716
[1]; first compound 0.5 µM
  relative viability: 0.766
[2]; first compound 0.005 µM
  relative viability: 0.337
[2]; first compound 0.01581 µM
  relative viability: 0.305
[2]; first compound 0.05 µM
  relative viability: 0.508
[2]; first compound 0.1581 µM
  relative viability: 0.148
[2]; first compound 0.5 µM
  relative viability: 0.299
[3]; first compound 0.005 µM
  relative viability: 0.669
[3]; first compound 0.01581 µM
  relative viability: 0.657
[3]; first compound 0.05 µM
  relative viability: 1.07
[3]; first compound 0.1581 µM
  relative viability: 0.734
[3]; first compound 0.5 µM
  relative viability: 0.751
[4]; first compound 0.005 µM
  relative viability: 0.711
[4]; first compound 0.01581 µM
  relative viability: 0.606
[4]; first compound 0.05 µM
  relative viability: 0.661
[4]; first compound 0.1581 µM
  relative viability: 0.304
[4]; first compound 0.5 µM
  relative viability: 0.907
[5]; first compound 0.005 µM
  relative viability: 0.644
[5]; first compound 0.01581 µM
  relative viability: 0.224
[5]; first compound 0.05 µM
  relative viability: 0.248
[5]; first compound 0.1581 µM
  relative viability: 0.226
[5]; first compound 0.5 µM
  relative viability: 0.343
[6]; first compound 0.005 µM
  relative viability: 0.206
[6]; first compound 0.01581 µM
  relative viability: 0.246
[6]; first compound 0.05 µM
  relative viability: 0.218
[6]; first compound 0.1581 µM
  relative viability: 0.203
[6]; first compound 0.5 µM
  relative viability: 0.274
[7]; first compound 0.005 µM
  relative viability: 0.69
[7]; first compound 0.01581 µM
  relative viability: 0.851
[7]; first compound 0.05 µM
  relative viability: 0.821
[7]; first compound 0.1581 µM
  relative viability: 0.704
[7]; first compound 0.5 µM
  relative viability: 0.681
[8]; first compound 0.005 µM
  relative viability: 0.172
[8]; first compound 0.01581 µM
  relative viability: 0.34
[8]; first compound 0.05 µM
  relative viability: 0.199
[8]; first compound 0.1581 µM
  relative viability: 0.198
[8]; first compound 0.5 µM
  relative viability: 0.316
[9]; first compound 0.005 µM
  relative viability: 1.14
[9]; first compound 0.01581 µM
  relative viability: 1.11
[9]; first compound 0.05 µM
  relative viability: 1.13
[9]; first compound 0.1581 µM
  relative viability: 1.13
[9]; first compound 0.5 µM
  relative viability: 1.11
[10]; first compound 0.005 µM
  relative viability: 0.135
[10]; first compound 0.01581 µM
  relative viability: 0.209
[10]; first compound 0.05 µM
  relative viability: 0.189
[10]; first compound 0.1581 µM
  relative viability: 0.148
[10]; first compound 0.5 µM
  relative viability: 0.147
[11]; first compound 0.005 µM
  relative viability: 0.856
[11]; first compound 0.01581 µM
  relative viability: 0.834
[11]; first compound 0.05 µM
  relative viability: 0.879
[11]; first compound 0.1581 µM
  relative viability: 0.908
[11]; first compound 0.5 µM
  relative viability: 0.847
[12]; first compound 0.005 µM
  relative viability: 0.431
[12]; first compound 0.01581 µM
  relative viability: 0.4
[12]; first compound 0.05 µM
  relative viability: 0.469
[12]; first compound 0.1581 µM
  relative viability: 0.431
[12]; first compound 0.5 µM
  relative viability: 0.522
[13]; first compound 0.005 µM
  relative viability: 0.24
[13]; first compound 0.01581 µM
  relative viability: 0.383
[13]; first compound 0.05 µM
  relative viability: 0.34
[13]; first compound 0.1581 µM
  relative viability: 0.242
[13]; first compound 0.5 µM
  relative viability: 0.443
[14]; first compound 0.005 µM
  relative viability: 0.673
[14]; first compound 0.01581 µM
  relative viability: 0.656
[14]; first compound 0.05 µM
  relative viability: 0.802
[14]; first compound 0.5 µM
  relative viability: 0.626
[15]; first compound 0.005 µM
  relative viability: 1.06
[15]; first compound 0.01581 µM
  relative viability: 1.06
[15]; first compound 0.05 µM
  relative viability: 1.03
[15]; first compound 0.1581 µM
  relative viability: 1.06
[15]; first compound 0.5 µM
  relative viability: 1.06
[16]; first compound 0.005 µM
  relative viability: 0.89
[16]; first compound 0.01581 µM
  relative viability: 0.998
[16]; first compound 0.05 µM
  relative viability: 0.993
[16]; first compound 0.1581 µM
  relative viability: 1.01
[16]; first compound 0.5 µM
  relative viability: 1
[17]; first compound 0.005 µM
  relative viability: 0.845
[17]; first compound 0.01581 µM
  relative viability: 0.849
[17]; first compound 0.05 µM
  relative viability: 0.716
[17]; first compound 0.1581 µM
  relative viability: 0.898
[17]; first compound 0.5 µM
  relative viability: 0.738
[18]; first compound 0.005 µM
  relative viability: 0.588
[18]; first compound 0.01581 µM
  relative viability: 0.63
[18]; first compound 0.05 µM
  relative viability: 0.413
[18]; first compound 0.1581 µM
  relative viability: 0.467
[18]; first compound 0.5 µM
  relative viability: 0.6
[19]; first compound 0.005 µM
  relative viability: 0.807
[19]; first compound 0.01581 µM
  relative viability: 0.784
[19]; first compound 0.05 µM
  relative viability: 0.795
[19]; first compound 0.1581 µM
  relative viability: 0.692
[19]; first compound 0.5 µM
  relative viability: 0.708
[20]; first compound 0.005 µM
  relative viability: 0.156
[20]; first compound 0.01581 µM
  relative viability: 0.527
[20]; first compound 0.05 µM
  relative viability: 0.401
[20]; first compound 0.1581 µM
  relative viability: 0.257
[20]; first compound 0.5 µM
  relative viability: 0.148
[21]; first compound 0.005 µM
  relative viability: 1.01
[21]; first compound 0.01581 µM
  relative viability: 1.06
[21]; first compound 0.05 µM
  relative viability: 0.927
[21]; first compound 0.1581 µM
  relative viability: 1.19
[21]; first compound 0.5 µM
  relative viability: 1.08
[22]; first compound 0.005 µM
  relative viability: 0.334
[22]; first compound 0.01581 µM
  relative viability: 0.333
[22]; first compound 0.05 µM
  relative viability: 0.374
[22]; first compound 0.1581 µM
  relative viability: 0.33
[22]; first compound 0.5 µM
  relative viability: 0.35
